The structures appear in SMILES notation.

Data on 34 compounds can be found in US8697727B2, “N-substituted-heterocycloalkyloxybenzamide compounds and methods of use” (Rigel Pharmaceuticals, Inc., priority 2006, dated 2014).

The assay concerns AMPK. The assay can be described thus: AMPK activation, enzyme-linked immunosorbent assay. Format: cell-based. The procedure, abridged:
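Reported in ranges of less than 1 μM, 1-10 μM, 10-20 μM, 20-50 μM, 50-100 μM, and >100 μM, the values come from a cell-based assay. There, an enzyme-linked immunosorbent assay measured the relative concentration of phosphorylated acetyl-CoA carboxylase as a readout of AMPK activity. The endpoint is the EC50 of each compound for AMPK activation.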
Consider `O=C(NC1CCN(Cc2ccccc2)CC1)c1ccc(OC2CCN(Cc3ccncc3)CC2)c(F)c1` [Compound 37, N-(1-benzylpiperidin-4-yl)-3-fluoro-4-(1-(pyridin-4-ylmethyl)piperidin-4-yloxy)benzamide], for which the EC50 (usually the concentration at which the effect is half-maximal) is under 1000 nM.
Consider `O=C(NC1CCN(Cc2ccccc2)CC1)c1cccc(OC2CCN(c3ccc(C(F)(F)F)cc3)CC2)c1` [Compound 46, N-(1-benzylpiperidin-4-yl)-3-(1-(4-(trifluoromethyl)phenyl)piperidin-4-yloxy)benzamide], for which the EC50 is under 1000 nM.
In turn, `O=C(NC1CCN(Cc2ccccc2)CC1)c1ccc(OC2CCN(Cc3ccc(Cl)cc3)CC2)c(Cl)c1` [Compound 65, N-(1-benzylpiperidin-4-yl)-3-chloro-4-(1-(4-chlorobenzyl)piperidin-4-yloxy)benzamide] had an EC50 of under 1000 nM.
The compound `N#Cc1ccc(N2CCC(Oc3cccc(C(=O)NC4CCN(Cc5ccncc5)CC4)c3)CC2)cc1` [Compound 88, N-(1-(pyridin-4-ylmethyl)piperidin-4-yl)-3-(1-(4-cyanophenyl)piperidin-4-yloxy)benzamide] showed an EC50 of 1000 to 10000 nM.
Consider `COc1ccc(CN2CCC(Oc3ccc(C(=O)NCCCN4CCOCC4)cc3Cl)CC2)cc1` [Compound 101, 3-chloro-4-(1-(4-methoxybenzyl)piperidin-4-yloxy)-N-(3-morpholinopropyl)benzamide], for which the EC50 lay in the range of 10000 to 20000 nM.
In turn, `Cc1ccc(CN2CCC(Oc3ccc(C(=O)NC4CCN(Cc5ccc(F)cc5)CC4)cc3Cl)CC2)cc1` [Compound 68, 3-chloro-N-(1-(4-fluorobenzyl)piperidin-4-yl)-4-(1-(4-methylbenzyl)piperidin-4-yloxy)benzamide] gave an EC50 of under 1000 nM.
`CC(C)(C)OC(=O)N1CCC(NC(=O)c2ccc(OC3CCN(Cc4ccc(C#N)cc4)CC3)cc2)CC1` [Compound 78, tert-butyl 4-(4-(1-(4-cyanobenzyl)piperidin-4-yloxy)benzamido)piperidine-1-carboxylate]: the EC50 is under 1000 nM.
The compound `O=C(NC1CCN(Cc2ccccc2)CC1)c1ccc(OC2CCN(Cc3ccc(Cl)c(Cl)c3)CC2)c(Cl)c1` [Compound 84, N-(1-benzylpiperidin-4-yl)-3-chloro-4-(1-(3,4-dichlorobenzyl)piperidin-4-yloxy)benzamide] showed an EC50 of under 1000 nM.
For the compound `COc1ccc(CN2CCC(Oc3ccc(C(=O)N4CCN(C(=O)OC(C)(C)C)CC4)cc3)CC2)cc1` [Compound 96, tert-butyl 4-(4-(1-(4-methoxybenzyl)piperidin-4-yloxy)benzoyl)piperazine-1-carboxylate], the EC50 is 1000 to 10000 nM.
In turn, `O=C(c1ccc(OC2CCN(Cc3ccccc3)CC2)cc1)N1CCN(c2ccccc2)CC1` [Compound 103, (4-(1-benzylpiperidin-4-yloxy)phenyl)(4-phenylpiperazin-1-yl)methanone] gave an EC50 of 20000 to 50000 nM.
With `COc1cc(C(=O)NC2CCN(Cc3ccccc3)CC2)ccc1OC1CCN(CCCc2ccccc2)CC1` [Compound 7, N-(1-benzylpiperidin-4-yl)-3-methoxy-4-(1-(3-phenylpropyl)piperidin-4-yloxy)benzamide] the figure was under 1000 nM.
In turn, `CN1CCC(NC(=O)c2ccc(OC3CCN(Cc4ccc(C(F)(F)F)cc4)CC3)c(Cl)c2)CC1` [Compound 58, 3-chloro-N-(1-methylpiperidin-4-yl)-4-(1-(4-(trifluoromethyl)benzyl)piperidin-4-yloxy)benzamide] showed an EC50 of 1000 to 10000 nM.
Regarding `O=C(NC1CCN(Cc2ccccc2)CC1)c1cc(Cl)c(OC2CCN(Cc3ccc(Cl)cc3)CC2)c(Cl)c1` [Compound 75, N-(1-benzylpiperidin-4-yl)-3,5-dichloro-4-(1-(4-chlorobenzyl)piperidin-4-yloxy)benzamide], the EC50 was under 1000 nM.
In the case of `CC(C)(C)C(=O)N1CCC(Oc2ccc(C(=O)NC3CCN(Cc4ccccc4)CC3)cc2Cl)CC1` [Compound 91, N-(1-benzylpiperidin-4-yl)-3-chloro-4-(1-pivaloylpiperidin-4-yloxy)benzamide], the half-maximal effective concentration (EC50) was under 1000 nM.
The compound `N#Cc1ccc(CN2CCC(Oc3ccc(C(=O)NC4CCN(Cc5ccccc5)CC4)cc3Cl)CC2)cc1` [Compound 67, N-(1-benzylpiperidin-4-yl)-3-chloro-4-(1-(4-cyanobenzyl)piperidin-4-yloxy)benzamide] showed an EC50 of under 1000 nM.
In turn, `O=C(NC1CCN(Cc2ccccc2)CC1)c1ccc(OC2CCN(Cc3ccc(F)cc3)CC2)c(Cl)c1` [Compound 19, N-(1-benzylpiperidin-4-yl)-3-chloro-4-(1-(4-fluorobenzyl)piperidin-4-yloxy)benzamide] yielded an EC50 of under 1000 nM.
With `O=C(NC1CCN(Cc2ccncc2)CC1)c1ccc(OC2CCN(c3ccc(C(F)(F)F)cc3)CC2)c(F)c1` [Compound 28, 3-fluoro-N-(1-(pyridin-4-ylmethyl)piperidin-4-yl)-4-(1-(4-(trifluoromethyl)phenyl)piperidin-4-yloxy)benzamide] the figure was under 1000 nM; with `O=C(NC1CCN(Cc2ccccc2)CC1)c1cccc(OC2CCN(Cc3ccccc3)CC2)c1` [Compound 13, N-(1-benzylpiperidin-4-yl)-3-(1-benzylpiperidin-4-yloxy)benzamide], 20000 to 50000 nM; with `O=C(NC1CCN(Cc2ccccc2)CC1)c1ccc(OC2CCN(Cc3ccc(OC(F)(F)F)cc3)CC2)cc1` [Compound 63, N-(1-benzylpiperidin-4-yl)-4-(1-(4-(trifluoromethoxy)benzyl)piperidin-4-yloxy)benzamide], under 1000 nM.
For the compound `O=C(O)c1ccc(CN2CCC(NC(=O)c3ccc(OC4CCN(c5ccc(C(F)(F)F)cc5)CC4)c(F)c3)CC2)cc1` [Compound 35, 4-((4-(3-fluoro-4-(1-(4-(trifluoromethyl)phenyl)piperidin-4-yloxy)benzamido)piperidin-1-yl)methyl)benzoic acid], the EC50 lay in the range of 1000 to 10000 nM.
For the compound `O=C(NC1CCN(Cc2ccccc2)CC1)c1ccc(OC2CCN(C(=O)c3ccc(F)cc3)CC2)c(Cl)c1` [Compound 22, N-(1-benzylpiperidin-4-yl)-3-chloro-4-(1-(4-fluorobenzoyl)piperidin-4-yloxy)benzamide], the EC50 is 1000 to 10000 nM.
`N#Cc1ccc(CN2CCC(Oc3ccc(C(=O)NC4CCNCC4)cc3)CC2)cc1` [Compound 79, 4-(1-(4-cyanobenzyl)piperidin-4-yloxy)-N-(piperidin-4-yl)benzamide]: the EC50 is over 100000 nM.
With `COc1cc(C(=O)NC2CCN(Cc3ccccc3)CC2)ccc1OC1CCN(c2cccs2)CC1` [Compound 8, N-(1-benzylpiperidin-4-yl)-3-methoxy-4-(1-(thiophen-2-yl)piperidin-4-yloxy)benzamide] the figure was 1000 to 10000 nM; with `O=C(NC1CCN(Cc2ccccc2)CC1)c1ccc(OC2CCN(Cc3cccnc3)CC2)c(F)c1` [Compound 38, N-(1-benzylpiperidin-4-yl)-3-fluoro-4-(1-(pyridin-3-ylmethyl)piperidin-4-yloxy)benzamide], 1000 to 10000 nM.
In turn, `O=C(NC1CCN(Cc2ccccc2)CC1)c1ccc(OC2CCN(Cc3ccc(C(F)(F)F)cc3)CC2)c(F)c1` [Compound 55, N-(1-benzylpiperidin-4-yl)-3-fluoro-4-(1-(4-(trifluoromethyl)benzyl)piperidin-4-yloxy)benzamide] registered an EC50 of under 1000 nM.
In the case of `O=C(NC1CCN(Cc2ccccc2)CC1)c1cc(Cl)c(OC2CCN(Cc3ccc(F)c(F)c3)CC2)c(Cl)c1` [Compound 76, N-(1-benzylpiperidin-4-yl)-3,5-dichloro-4-(1-(3,4-difluorobenzyl)piperidin-4-yloxy)benzamide], the EC50 is under 1000 nM.
Consider `CC(C)(C)OC(=O)N1CCC(Oc2ccc(C(=O)NC3CCN(Cc4ccccc4)CC3)cc2F)CC1` [Compound 92, tert-butyl 4-(4-(1-benzylpiperidin-4-ylcarbamoyl)-2-fluorophenoxy)piperidine-1-carboxylate], for which the concentration for a half-maximal effect (EC50) lay within 1000 to 10000 nM.
In turn, `O=C(NC1CCN(Cc2ccccc2)CC1)c1ccc(OC2CCN(Cc3ccc(F)c(F)c3)CC2)c(Cl)c1` [Compound 74, N-(1-benzylpiperidin-4-yl)-3-chloro-4-(1-(3,4-difluorobenzyl)piperidin-4-yloxy)benzamide] returned a concentration for a half-maximal effect (EC50) of under 1000 nM.
For `O=C(NC1CCN(Cc2ccccc2)CC1)c1ccc(OC2CCN(Cc3ccc(Cl)cc3)CC2)c(F)c1` [Compound 64, N-(1-benzylpiperidin-4-yl)-4-(1-(4-chlorobenzyl)piperidin-4-yloxy)-3-fluorobenzamide], the 50% effective concentration (EC50) was under 1000 nM.
In the case of `O=C(NC1CCN(Cc2ccc(Cl)cc2)CC1)c1ccc(OC2CCN(Cc3ccc(Cl)c(Cl)c3)CC2)c(F)c1` [Compound 80, N-(1-(4-chlorobenzyl)piperidin-4-yl)-4-(1-(3,4-dichlorobenzyl)piperidin-4-yloxy)-3-fluorobenzamide], the concentration giving a half-maximal response (EC50) is under 1000 nM.
`N#Cc1ccc(N2CCC(Oc3ccc(C(=O)NC4CCN(Cc5ccc(Cl)cc5)CC4)cc3F)CC2)cc1` [Compound 81, N-(1-(4-chlorobenzyl)piperidin-4-yl)-4-(1-(4-cyanophenyl)piperidin-4-yloxy)-3-fluorobenzamide] yielded an EC50 of under 1000 nM.
As to `Cn1cncc1CN1CCC(Oc2ccc(C(=O)NC3CCN(Cc4ccccc4)CC3)cc2Cl)CC1` [Compound 5, N-(1-benzylpiperidin-4-yl)-3-chloro-4-(1-((l-methyl-1H-imidazol-5-yl)methyl)piperidin-4-yloxy)benzamide], the EC50 lay in the range of 50000 to 100000 nM.
As for `O=C(NC1CCN(Cc2ccccc2)CC1)c1ccc(OC2CCN(Cc3ccc(OC(F)(F)F)cc3)CC2)c(Cl)c1` [Compound 54, N-(1-benzylpiperidin-4-yl)-3-chloro-4-(1-(4-(trifluoromethoxy)benzyl)piperidin-4-yloxy)benzamide], the figure is under 1000 nM; as for `CC(C)(C)c1ccc(CN2CCC(Oc3ccc(C(=O)NC4CCN(Cc5ccccc5)CC4)cc3F)CC2)cc1` [Compound 20, N-(1-benzylpiperidin-4-yl)-3-fluoro-4-(1-(4-tert-butylbenzyl)piperidin-4-yloxy)benzamide], under 1000 nM.
